Assay results: PubChem BioAssay (NCI)
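48-hour exposure; five concentrations; linearly interpolated endpoints. Here, GI50 denotes the concentration required for 50% inhibition of growth. TGI: concentration producing complete growth inhibition.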

Columns and labels:
Experiment in all cases: growth of human tumour cells (NCI), 48 h
[1] = test system: SW-620 colon
[2] = test system: UACC-62 melanoma
[3] = test system: HCT-15 colon
[4] = test system: HCC-2998 colon
[5] = test system: KM12 colon
[6] = test system: OVCAR-3 ovarian
[7] = test system: BT-549 breast
[8] = test system: HS 578T breast
[9] = test system: NCI/ADR-RES ovarian
[10] = test system: SK-MEL-5 melanoma

`CCOC(=O)C1=C(C)N=c2s/c(=C\c3ccccc3O)c(=O)n2C1c1ccc(OC)c2ccccc12` (stereo not drawn) was tested, and the GI50 [1] was 16.6 µM, the TGI [1] was > 100 µM and the GI50 [2] was 40.7 µM. For the same compound, the TGI [2] was > 100 µM, the GI50 [3] was 8.69 µM and the TGI [3] was > 100 µM. For the same compound, the GI50 [4] was 8.43 µM, the TGI [4] was 58.1 µM and the GI50 [5] was 9.66 µM. The TGI [5] was > 100 µM, the GI50 [6] was 3.04 µM and the TGI [6] was 7.83 µM. For the same compound, the GI50 [7] was 14.6 µM, the TGI [7] was > 100 µM and the GI50 [8] was 2.95 µM. The TGI [8] was 13.4 µM, the GI50 [9] was 7.92 µM and the TGI [9] was 43.5 µM. For the same compound, the GI50 [10] was 15.6 µM and the TGI [10] was 64.8 µM.

With `COC(=O)[C@@H](C)C[C@H](Cc1cn(C)c2ccccc12)NC(=O)c1csc([C@@H](C[C@H](C(C)C)N(C)C(=O)[C@@H](NC(=O)[C@H]2CCCCN2C)C(C)C)OC(C)=O)n1` the GI50 [1] was 0.0083 µM, the TGI [1] was > 16.7 µM and the GI50 [2] was 0.00745 µM. For the same compound, the TGI [2] was > 16.7 µM, the GI50 [3] was 0.0665 µM and the TGI [3] was > 16.7 µM. The GI50 [4] was 0.0925 µM, the TGI [4] was > 16.7 µM and the GI50 [5] was 0.0108 µM. For the same compound, the TGI [5] was > 16.7 µM, the GI50 [6] was 0.0051 µM and the GI50 [7] was < 0.0113 µM. For the same compound, the TGI [7] was 0.49 µM, the GI50 [8] was 0.0105 µM and the TGI [8] was 7.58 µM. For the same compound, the GI50 [9] was 0.417 µM, the TGI [9] was > 16.7 µM and the GI50 [10] was 0.00595 µM. It also gave a TGI [10] of 0.252 µM.

In the case of `O=C(c1ccco1)c1nc2cc(C(F)(F)F)ccc2nc1C(F)(F)F`, the GI50 [1] is reported as > 100 µM, the TGI [1] is reported as > 100 µM and the GI50 [2] is reported as > 100 µM. For the same compound, the TGI [2] was > 100 µM, the GI50 [3] was > 100 µM and the TGI [3] was > 100 µM. For the same compound, the GI50 [4] was > 100 µM, the TGI [4] was > 100 µM and the GI50 [5] was > 100 µM. The TGI [5] was > 100 µM, the GI50 [6] was > 100 µM and the TGI [6] was > 100 µM. The GI50 [7] was > 100 µM, the TGI [7] was > 100 µM and the GI50 [8] was > 100 µM. For the same compound, the TGI [8] was > 100 µM, the GI50 [9] was > 100 µM and the TGI [9] was > 100 µM. The GI50 [10] was > 100 µM and the TGI [10] was > 100 µM.

With `O=C1c2[nH]cc(CNC3CN4CCC3CC4)c2C(=O)c2c1c(O)c1ccccc1c2O` (stereo not drawn) the GI50 [1] was 0.117 µM, the TGI [1] was 0.399 µM and the GI50 [2] was 14.9 µM. For the same compound, the TGI [2] was 37.6 µM, the GI50 [3] was 3.62 µM and the TGI [3] was 8.55 µM. The GI50 [4] was 0.187 µM, the TGI [4] was 0.721 µM and the GI50 [5] was 0.672 µM. The TGI [5] was 2.32 µM, the GI50 [6] was 1.01 µM and the TGI [6] was 2.22 µM. It also gave a GI50 [7] of 21.6 µM, a TGI [7] of 47.1 µM and a GI50 [8] of 26.6 µM. For the same compound, the TGI [8] was 77.5 µM, the GI50 [9] was 2.08 µM and the TGI [9] was 6.4 µM. For the same compound, the GI50 [10] was 11.9 µM and the TGI [10] was 31.5 µM.

For `CC[C@H]1CN2CCc3cc(OC)c(OC)cc3C2C[C@@H]1CC1NCCc2cc(OC)c(OC)cc21` (stereo partly drawn), the TGI [1] was 0.238 µM, the TGI [2] was 0.316 µM and the TGI [3] was 2.02 µM. It also gave a TGI [4] of 0.065 µM, a TGI [5] of 0.0986 µM and a TGI [6] of 0.197 µM. The TGI [7] was 0.375 µM, the TGI [8] was 1.75 µM and the TGI [9] was 1.19 µM. It also gave a TGI [10] of 0.0928 µM.

With `COC(=O)/C(=N\NC(N)=O)C(C(=O)C(=O)Nc1ccccc1OC)c1nc2ccc([N+](=O)[O-])cc2[nH]c1=O` (stereo not drawn) the TGI [1] was > 100 µM, the TGI [2] was > 100 µM and the TGI [3] was > 100 µM. For the same compound, the TGI [4] was > 100 µM, the TGI [5] was > 100 µM and the TGI [6] was > 100 µM. The TGI [7] was > 100 µM, the TGI [8] was > 100 µM and the TGI [9] was > 100 µM. For the same compound, the TGI [10] was > 100 µM.

`COc1ccc(N=Cc2c(O)ccc3c2oc2cc(Cl)c(O)c(Cl)c23)cc1` gave a GI50 [1] of 11.8 µM, a TGI [1] of 25.9 µM and a GI50 [2] of 10.3 µM. For the same compound, the TGI [2] was 33.7 µM, the GI50 [3] was 7.38 µM and the TGI [3] was 25.7 µM. It also gave a GI50 [4] of 15 µM, a TGI [4] of 29.3 µM and a GI50 [5] of 7.91 µM. It also gave a TGI [5] of 21.3 µM, a GI50 [6] of 6.91 µM and a TGI [6] of 22.3 µM. For the same compound, the GI50 [7] was 13.4 µM, the TGI [7] was > 100 µM and the GI50 [8] was 4.45 µM. For the same compound, the TGI [8] was 23.1 µM, the GI50 [9] was 12.2 µM and the TGI [9] was 50.7 µM. It also gave a GI50 [10] of 10.5 µM and a TGI [10] of 27.7 µM.

With `CCC(CC)c1nc(Nc2ccc(C(=O)OC)cc2)c2ccccc2n1` the GI50 [1] was 12.7 µM, the TGI [1] was > 27.7 µM and the GI50 [2] was 9.13 µM. For the same compound, the TGI [2] was 18.6 µM, the GI50 [3] was 11 µM and the TGI [3] was > 33.1 µM. It also gave a GI50 [4] of 8.66 µM, a TGI [4] of 17.1 µM and a GI50 [5] of 8.01 µM. It also gave a TGI [5] of 18 µM, a GI50 [6] of 5.7 µM and a TGI [6] of 21 µM. The GI50 [7] was 31.7 µM, the TGI [7] was > 50 µM and the GI50 [8] was 10.9 µM. The TGI [8] was 26.5 µM, the GI50 [9] was 24.3 µM and the TGI [9] was > 34.7 µM. It also gave a GI50 [10] of 7.82 µM and a TGI [10] of 16.1 µM.

`CC12OOC(c3ccccc31)c1c2ccc2ccccc12` (stereo not drawn) was tested, and the TGI [1] was 3.94 µM, the TGI [2] was 21.2 µM and the TGI [3] was 5.09 µM. The TGI [4] was 16.2 µM, the TGI [5] was 7.43 µM and the TGI [6] was 5.81 µM. It also gave a TGI [7] of 22.3 µM, a TGI [8] of 78.7 µM and a TGI [9] of 24.1 µM. The TGI [10] was 21.6 µM.

`N#Cc1c(NC(=O)NCc2ccccc2)sc2c1CCCC2` was tested, and the GI50 [1] was 0.388 µM, the TGI [1] was > 100 µM and the GI50 [2] was 0.455 µM. The TGI [2] was > 100 µM, the GI50 [3] was 0.443 µM and the TGI [3] was > 100 µM. For the same compound, the GI50 [4] was 1.72 µM, the TGI [4] was > 100 µM and the GI50 [5] was 0.425 µM. The TGI [5] was > 100 µM, the GI50 [6] was 0.344 µM and the TGI [6] was 1.87 µM. For the same compound, the GI50 [7] was 1.25 µM, the TGI [7] was > 100 µM and the GI50 [8] was 0.404 µM. For the same compound, the TGI [8] was > 100 µM, the GI50 [9] was 0.424 µM and the TGI [9] was > 34.1 µM. For the same compound, the GI50 [10] was 0.439 µM and the TGI [10] was 6.93 µM.

For `CCOC(=O)c1ccc(Nc2sc(C(=O)c3ccc(Br)cc3)c(N)c2C#N)cc1`, the GI50 [1] was 0.584 µM, the TGI [1] was > 100 µM and the GI50 [2] was 0.483 µM. The TGI [2] was > 100 µM, the GI50 [3] was 0.662 µM and the TGI [3] was > 100 µM. The GI50 [4] was > 100 µM, the TGI [4] was > 100 µM and the GI50 [5] was 0.775 µM. For the same compound, the TGI [5] was > 100 µM, the GI50 [6] was 0.364 µM and the TGI [6] was 2.19 µM. For the same compound, the GI50 [7] was > 100 µM, the TGI [7] was > 100 µM and the GI50 [8] was 1.48 µM. For the same compound, the TGI [8] was > 100 µM, the GI50 [9] was 0.842 µM and the TGI [9] was > 100 µM. The GI50 [10] was 1.02 µM and the TGI [10] was > 100 µM.

In the case of `CCCCCCCC/C=C/CCCCCCCC1=NC(C)(C)CN1CC(C)O` (stereo not drawn), the GI50 [1] is reported as 1.8 µM, the TGI [1] is reported as 3.34 µM and the GI50 [2] is reported as 1.66 µM. The TGI [2] was 3.13 µM, the GI50 [3] was 1.63 µM and the TGI [3] was 3.27 µM. It also gave a GI50 [4] of 4.68 µM, a TGI [4] of 9.45 µM and a GI50 [5] of 1.99 µM. It also gave a TGI [5] of 3.98 µM, a GI50 [6] of 5.37 µM and a TGI [6] of 9.96 µM. The GI50 [7] was 2.84 µM, the TGI [7] was 15.7 µM and the GI50 [8] was 1.9 µM. The TGI [8] was 4.62 µM, the GI50 [9] was 2.68 µM and the TGI [9] was 6.9 µM. The GI50 [10] was 6.39 µM and the TGI [10] was 16.9 µM.

With `CN(C)c1ccc(/C=C/c2ccnc3c(O)cccc23)cc1` the GI50 [1] was 0.397 µM, the TGI [1] was > 100 µM and the GI50 [2] was 0.294 µM. For the same compound, the TGI [2] was 1.07 µM, the GI50 [3] was 0.335 µM and the TGI [3] was > 100 µM. For the same compound, the GI50 [4] was 2.09 µM, the TGI [4] was > 100 µM and the GI50 [5] was 0.399 µM. For the same compound, the TGI [5] was > 100 µM, the GI50 [6] was 0.462 µM and the TGI [6] was > 100 µM. The GI50 [7] was 1.01 µM, the TGI [7] was > 100 µM and the GI50 [8] was 0.85 µM. The TGI [8] was > 100 µM, the GI50 [9] was 0.312 µM and the GI50 [10] was 0.37 µM. It also gave a TGI [10] of 3.05 µM.
